How the values were obtained:
MCF-7 cells = experiment: Cell Growth Inhibition, MCF-7 (CellTiterGlo, 6 days); format: cell-based; details: Homo sapiens, MCF7, 144 h; MCF-7, 6-day treatment, CellTiterGlo 2.0
Procedure, shortened: (§1)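 Compounds were run in half-log series, usually 10–10,000 nM, with 500 cells/well of OVCAR-3 or MCF-7 in RPMI plus 10% FBS. After a 6-day culture at 37 °C, viability was read by CellTiterGlo luminescence. Inhibition relative to control was fitted (four-parameter, variable slope) for IC50.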

[1] = target: CDK2/Cyclin E1 full length (Homo sapiens (Human), UniProt P24941); experiment: CDK2/Cyclin E1 Full Length ADP-Glo Kinase Assay; format: biochemical; details: 20 uM ATP, read-out: CDK2/ CyclinE1 IC50
Procedure, shortened: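 ADP-Glo luminescence read-out of ADP formed by 0.328 nM wild-type full-length CDK2/Cyclin E1, 90 min at room temperature with 0.75 uM substrate and 20 uM ATP (Km 64.78 uM), after 30 min enzyme–inhibitor pre-incubation; 50 mM HEPES pH 7.5, 2% DMSO. Four-parameter IC50 fit.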

CDK1/Cyclin B1 = CDK1/Cyclin B1 (Homo sapiens (Human), UniProt P06493); experiment: CDK1/Cyclin B1 ADP-Glo Kinase Assay; format: biochemical; details: 80 uM ATP
Sequence of CDK1/Cyclin B1 (P06493 whole entry): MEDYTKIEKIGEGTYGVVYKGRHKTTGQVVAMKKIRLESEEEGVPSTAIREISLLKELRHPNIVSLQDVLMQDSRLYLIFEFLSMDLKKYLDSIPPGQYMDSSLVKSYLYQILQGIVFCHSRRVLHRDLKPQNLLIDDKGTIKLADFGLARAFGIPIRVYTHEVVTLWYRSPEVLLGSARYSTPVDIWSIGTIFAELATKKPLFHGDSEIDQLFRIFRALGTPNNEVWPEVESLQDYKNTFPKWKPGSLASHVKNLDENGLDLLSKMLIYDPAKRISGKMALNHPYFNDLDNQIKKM
Sequence of CDK1/Cyclin B1 (P14635 whole entry partner): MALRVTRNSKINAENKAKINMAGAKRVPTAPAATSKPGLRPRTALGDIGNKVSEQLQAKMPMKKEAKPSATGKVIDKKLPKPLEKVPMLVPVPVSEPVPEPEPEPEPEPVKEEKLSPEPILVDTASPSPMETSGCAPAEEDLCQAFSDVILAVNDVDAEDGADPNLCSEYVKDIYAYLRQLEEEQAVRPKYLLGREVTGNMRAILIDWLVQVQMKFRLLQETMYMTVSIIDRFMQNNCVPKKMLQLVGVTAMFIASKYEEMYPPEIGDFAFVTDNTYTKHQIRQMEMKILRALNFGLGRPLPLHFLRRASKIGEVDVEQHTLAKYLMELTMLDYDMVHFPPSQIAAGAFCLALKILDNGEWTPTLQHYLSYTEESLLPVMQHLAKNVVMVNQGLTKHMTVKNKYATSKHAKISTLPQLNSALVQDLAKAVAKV
Procedure, shortened: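 Luminescent ADP-Glo detection of ADP produced over 90 min at room temperature. Enzyme complex 4.917 nM, pre-exposed 30 min to inhibitor; ATP 80 µM (near Km 78.6 µM), substrate 0.75 µM, HEPES pH 7.5, 2% DMSO. Fractional velocity fitted to 4-parameter IC50 equation.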

CDK6/Cyclin D3 = CDK6/Cyclin D3 (Homo sapiens (Human), UniProt Q00534); experiment: CDK6/Cyclin D3 ADP-Glo Kinase Assay; format: biochemical; details: 100 uM ATP, read-out: CDK6/ CyclinD3 IC50
Sequence of CDK6/Cyclin D3 (Q00534 whole entry): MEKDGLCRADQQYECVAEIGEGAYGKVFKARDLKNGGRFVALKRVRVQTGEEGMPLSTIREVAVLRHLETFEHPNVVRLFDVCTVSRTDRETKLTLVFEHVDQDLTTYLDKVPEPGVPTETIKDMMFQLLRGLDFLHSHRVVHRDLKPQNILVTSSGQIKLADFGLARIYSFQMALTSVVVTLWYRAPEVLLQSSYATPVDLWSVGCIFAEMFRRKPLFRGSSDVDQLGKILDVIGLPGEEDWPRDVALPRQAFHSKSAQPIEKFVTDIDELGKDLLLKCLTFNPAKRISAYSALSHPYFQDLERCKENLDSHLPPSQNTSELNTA
Sequence of CDK6/Cyclin D3 (P30281 whole entry partner): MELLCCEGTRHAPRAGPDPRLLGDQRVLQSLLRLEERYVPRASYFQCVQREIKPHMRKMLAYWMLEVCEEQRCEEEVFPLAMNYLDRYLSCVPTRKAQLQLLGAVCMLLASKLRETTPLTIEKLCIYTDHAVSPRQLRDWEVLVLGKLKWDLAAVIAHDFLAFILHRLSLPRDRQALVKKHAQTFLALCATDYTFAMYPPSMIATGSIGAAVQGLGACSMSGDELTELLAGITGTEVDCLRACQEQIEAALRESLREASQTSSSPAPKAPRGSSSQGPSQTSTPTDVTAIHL
Procedure, shortened: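 Luminescent ADP-Glo read-out of ADP produced, used to fit IC50 (4-parameter equation on fractional velocity against inhibitor concentration). Kinase reaction: enzyme and inhibitor together 30 min, then ATP-containing substrate added for 90 min, all at room temperature.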

CDK4/Cyclin D1 = CDK4/Cyclin D1 (Homo sapiens (Human), UniProt P11802); experiment: CDK4/Cyclin D1 CHEF Assay (AQT0258 peptide); format: biochemical; details: 200 uM ATP, read-out: CDK4/ CyclinD1 AQT IC50
Sequence of CDK4/Cyclin D1 (P11802 whole entry): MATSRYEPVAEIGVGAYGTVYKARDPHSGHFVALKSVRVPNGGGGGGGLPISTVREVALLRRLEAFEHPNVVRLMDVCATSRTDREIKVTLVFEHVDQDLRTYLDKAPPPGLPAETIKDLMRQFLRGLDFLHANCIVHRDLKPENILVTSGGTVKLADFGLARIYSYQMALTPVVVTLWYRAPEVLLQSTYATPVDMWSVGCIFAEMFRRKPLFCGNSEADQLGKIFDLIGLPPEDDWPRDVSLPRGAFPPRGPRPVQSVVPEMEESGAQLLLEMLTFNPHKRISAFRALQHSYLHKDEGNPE
Sequence of CDK4/Cyclin D1 (P24385 whole entry partner): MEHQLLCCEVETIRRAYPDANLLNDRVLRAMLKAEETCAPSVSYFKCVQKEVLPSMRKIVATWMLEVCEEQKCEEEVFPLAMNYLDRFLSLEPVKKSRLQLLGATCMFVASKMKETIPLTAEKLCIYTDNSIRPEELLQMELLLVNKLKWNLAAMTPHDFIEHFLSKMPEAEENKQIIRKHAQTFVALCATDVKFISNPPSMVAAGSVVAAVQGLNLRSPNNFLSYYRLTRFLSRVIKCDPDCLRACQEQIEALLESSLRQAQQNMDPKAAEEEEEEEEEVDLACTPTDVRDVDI
Procedure, shortened: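 CDK4/Cyclin D1 (2.5 nM) phosphorylating 10 uM Sox-labelled peptide AQT0258 with 200 uM ATP (Km 195.2 uM), 10 mM MgCl2, 2% DMSO, 54 mM HEPES pH 7.5. Enzyme and inhibitor pre-incubated 30 min, reaction 3 hrs at 22° C.; CHEF fluorescence (ex 360/em 485 nm), IC50 from fractional velocity, 4-parameter fit.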

OVCAR-3 cells = experiment: Cell Growth Inhibition, OVCAR-3 (CellTiterGlo, 6 days); format: cell-based; details: Homo sapiens, 144 h; OVCAR-3, 6-day treatment, CellTiterGlo 2.0
Procedure, shortened: as §1

| IC50 (MCF-7 cells) | IC50 [1] | IC50 (CDK1/Cyclin B1) | IC50 (CDK6/Cyclin D3) | IC50 (CDK4/Cyclin D1) | IC50 (OVCAR-3 cells) | Compound |
| --- | --- | --- | --- | --- | --- | --- |
| 200 to 500 nM | < 200 nM | < 200 nM | < 200 nM | < 200 nM | 500 to 2000 nM | CN1CC2(CCN(c3cc(C(F)F)cc4cnc(NC5CCN(S(=O)(=O)C6CC6)CC5)nc34)C2)C1 [Example 77, N-(1-(cyclopropylsulfonyl)piperidin-4-yl)-6-(difluoromethyl)-8-(2-methyl-2,6-diazaspiro[3.4]octan-6-yl)quinazolin-2-amine] |
| 500 to 2000 nM | < 200 nM | 200 to 500 nM | < 200 nM | < 200 nM | > 2000 nM | O=S(=O)(C1CC1)N1CCC(Nc2ncc3cc(C(F)F)cc(N4CC5(C4)CN(C4CC4)C5)c3n2)CC1 [Example 78, 8-(6-cyclopropyl-2,6-diazaspiro[3.3]heptan-2-yl)-N-(1-(cyclopropylsulfonyl)piperidin-4-yl)-6-(difluoromethyl)quinazolin-2-amine] |
| 500 to 2000 nM | 200 to 500 nM | > 2000 nM | < 200 nM | < 200 nM | 500 to 2000 nM | CN1CCc2cc(Nc3ncc4cc(C(F)F)cc(N5CC6(C5)CN(C5CC5)C6)c4n3)ccc2C1 [Example 79, 8-(6-cyclopropyl-2,6-diazaspiro[3.3]heptan-2-yl)-6-(difluoromethyl)-N-(2-methyl-1,2,3,4-tetrahydroisoquinolin-6-yl)quinazolin-2-amine] |
| 200 to 500 nM | < 200 nM | < 200 nM | < 200 nM | < 200 nM | 200 to 500 nM | O=S(=O)(C1CC1)N1CCC(Nc2ncc3cc(C(F)F)cc(N4CC5(CCCNC5)C4)c3n2)CC1 [Example 80, N-(1-(cyclopropylsulfonyl)piperidin-4-yl)-6-(difluoromethyl)-8-(2,6-diazaspiro[3.5]nonan-2-yl)quinazolin-2-amine] |
| 500 to 2000 nM | < 200 nM | 200 to 500 nM | < 200 nM | < 200 nM | 500 to 2000 nM | CN1CCC2(C1)CN(c1cc(C(F)F)cc3cnc(NC4CCN(S(=O)(=O)C5CC5)CC4)nc13)C2 [Example 81, N-(1-(cyclopropylsulfonyl)piperidin-4-yl)-6-(difluoromethyl)-8-(6-methyl-2,6-diazaspiro[3.4]octan-2-yl)quinazolin-2-amine] |
| 500 to 2000 nM | < 200 nM | 500 to 2000 nM | < 200 nM | < 200 nM | > 2000 nM | FC(F)c1cc(N2CC3(CCNC3)C2)c2nc(Nc3ccc4c(c3)CN(C3CC3)C4)ncc2c1 [Example 82, N-(2-cyclopropylisoindolin-5-yl)-6-(difluoromethyl)-8-(2,6-diazaspiro[3.4]octan-2-yl)quinazolin-2-amine] |
| 500 to 2000 nM | < 200 nM | 200 to 500 nM | < 200 nM | < 200 nM | 500 to 2000 nM | CN1CC2(CCN(c3cc(C(F)F)cc4cnc(NC5CCN(S(=O)(=O)C6(C)CC6)CC5)nc34)C2)C1 [Example 83, 6-(difluoromethyl)-8-(2-methyl-2,6-diazaspiro[3.4]octan-6-yl)-N-(1-((1-methylcyclopropyl)sulfonyl)piperidin-4-yl)quinazolin-2-amine] |
| 500 to 2000 nM | < 200 nM | 200 to 500 nM | < 200 nM | < 200 nM | 500 to 2000 nM | O=S(=O)(CC1CCC1)N1CCC(Nc2ncc3cc(C(F)F)cc(N4CCC5(CNC5)C4)c3n2)CC1 [Example 84, N-(1-((cyclobutylmethyl)sulfonyl)piperidin-4-yl)-6-(difluoromethyl)-8-(2,6-diazaspiro[3.4]octan-6-yl)quinazolin-2-amine] |
| 200 to 500 nM | < 200 nM | < 200 nM | < 200 nM | < 200 nM | 200 to 500 nM | O=S(=O)(CC1CC1)N1CCC(Nc2ncc3cc(C(F)F)cc(N4CC5(CCNC5)C4)c3n2)CC1 [Example 85, N-(1-((cyclopropylmethyl)sulfonyl)piperidin-4-yl)-6-(difluoromethyl)-8-(2,6-diazaspiro[3.4]octan-2-yl)quinazolin-2-amine] |
| 500 to 2000 nM | < 200 nM | < 200 nM | < 200 nM | < 200 nM | 500 to 2000 nM | O=S(=O)(CC1CCC1)N1CCC(Nc2ncc3cc(C(F)F)cc(N4CC5(CCNC5)C4)c3n2)CC1 [Example 86, N-(1-((cyclobutylmethyl)sulfonyl)piperidin-4-yl)-6-(difluoromethyl)-8-(2,6-diazaspiro[3.4]octan-2-yl)quinazolin-2-amine] |
| 500 to 2000 nM | < 200 nM | < 200 nM | < 200 nM | < 200 nM | 200 to 500 nM | CC1(S(=O)(=O)N2CCC(Nc3ncc4cc(C(F)F)cc(N5CC6(CCNC6)C5)c4n3)CC2)CC1 [Example 87, 6-(difluoromethyl)-N-(1-((1-methylcyclopropyl)sulfonyl)piperidin-4-yl)-8-(2,6-diazaspiro[3.4]octan-2-yl)quinazolin-2-amine] |
| 200 to 500 nM | < 200 nM | < 200 nM | < 200 nM | < 200 nM | 200 to 500 nM | O=S(=O)(N1CCC(Nc2ncc3cc(C(F)F)cc(N4CCC5(CNC5)C4)c3n2)CC1)C1(C(F)F)CC1 [Example 88, 6-(difluoromethyl)-N-(1-((1-(difluoromethyl)cyclopropyl)sulfonyl)piperidin-4-yl)-8-(2,6-diazaspiro[3.4]octan-6-yl)quinazolin-2-amine] |
| 200 to 500 nM | < 200 nM | < 200 nM | < 200 nM | < 200 nM | < 200 nM | COCCN1CC2(CC(c3cc(C(F)F)cc4cnc(NC5CCN(S(C)(=O)=O)CC5)nc34)C2)C1 [Example 89, 6-(difluoromethyl)-8-(2-(2-methoxyethyl)-2-azaspiro[3.3]heptan-6-yl)-N-(1-(methylsulfonyl)piperidin-4-yl)quinazolin-2-amine] |
| 200 to 500 nM | < 200 nM | < 200 nM | < 200 nM | < 200 nM | < 200 nM | O=S(=O)(N1CCC(Nc2ncc3cc(C(F)F)cc(C4CC5(CCNC5)C4)c3n2)CC1)C1(C(F)F)CC1 (stereo not drawn) [Example 91, 6-(difluoromethyl)-N-(1-((1-(difluoromethyl)cyclopropyl)sulfonyl)piperidin-4-yl)-8-(6-azaspiro[3.4]octan-2-yl)quinazolin-2-amine] |
| 500 to 2000 nM | < 200 nM | < 200 nM | < 200 nM | < 200 nM | 500 to 2000 nM | CS(=O)(=O)N1CCC(Nc2ncc3cc(C(F)F)cc(N4CC(F)(F)C5(CNC5)C4)c3n2)CC1 [Example 92, 8-(8,8-difluoro-2,6-diazaspiro[3.4]octan-6-yl)-6-(difluoromethyl)-N-(1-(methylsulfonyl)piperidin-4-yl)quinazolin-2-amine] |
| 200 to 500 nM | < 200 nM | < 200 nM | < 200 nM | < 200 nM | < 200 nM | O=S(=O)(N1CCC(Nc2ncc3cc(C(F)F)cc(N4CC5(CCNC5)C4)c3n2)CC1)C1(C(F)F)CC1 [Example 93, 6-(difluoromethyl)-N-(1-((1-(difluoromethyl)cyclopropyl)sulfonyl)piperidin-4-yl)-8-(2,6-diazaspiro[3.4]octan-2-yl)quinazolin-2-amine] |
| 500 to 2000 nM | < 200 nM | < 200 nM | < 200 nM | < 200 nM | 500 to 2000 nM | CS(=O)(=O)N1CCC(Nc2ncc3cc(C(F)F)cc(N4CC5(CCNCC5(F)F)C4)c3n2)CC1 [Example 94, 8-(5,5-difluoro-2,7-diazaspiro[3.5]nonan-2-yl)-6-(difluoromethyl)-N-(1-(methylsulfonyl)piperidin-4-yl)quinazolin-2-amine] |

| Compound | IC50 (MCF-7 cells) | IC50 [1] | IC50 (CDK1/Cyclin B1) | IC50 (CDK6/Cyclin D3) | IC50 (CDK4/Cyclin D1) | IC50 (OVCAR-3 cells) |
| --- | --- | --- | --- | --- | --- | --- |
| O=S(=O)(C1CC1)N1CCC(Nc2ncc3cc(C(F)F)cc(C4CC5(C4)CN(CC(F)F)C5)c3n2)CC1 [Example 90, N-(1-(cyclopropylsulfonyl)piperidin-4-yl)-8-(2-(2,2-difluoroethyl)-2-azaspiro[3.3]heptan-6-yl)-6-(difluoromethyl)quinazolin-2-amine] | 500 to 2000 nM | < 200 nM | < 200 nM | < 200 nM | < 200 nM | 200 to 500 nM |

— patent US20240092761A1, “QUINAZOLINE COMPOUNDS AND METHODS OF USE” (IAMBIC THERAPEUTICS, INC., priority 2022, published 2024)
